14 compounds from patent US20240158446A1, “CYCLIC COMPOUND HAVING SELECTIVE INHIBITORY ACTION ON KRAS OVER HRAS AND NRAS” (CHUGAI SEIYAKU KABUSHIKI KAISHA, priority 2021, published 2024) can be followed below.

The target in assay [1] is GDP-bound HRAS wild-type protein (Homo sapiens, UniProt P01112). Nature of the assay: Binding to HRAS by surface plasmon resonance (SPR), Single Cycle Kinetics. The following applies: ratio of KD for GDP-bound HRAS wild-type protein to KD for KRAS, SPR.
Assay [2] concerns the target GDP-bound KRAS wild-type protein (Homo sapiens, UniProt P01116). Description: Binding to KRAS by surface plasmon resonance (SPR), Single Cycle Kinetics. The following applies: SPR, Single Cycle Kinetics, GDP-bound KRAS wild-type protein; read-out: KRAS KD. (Surface plasmon resonance follows binding to a sensor surface in real time, without labels.)
The target of assay [3] is GDP-bound NRAS wild-type protein (Homo sapiens, UniProt P01111). Nature of the assay: Binding to NRAS by surface plasmon resonance (SPR), Single Cycle Kinetics. The note with it: ratio of KD for GDP-bound NRAS wild-type protein to KD for KRAS, SPR.
Assay [4] relates to human lung cancer strain NCI-H441. Nature of the assay: cells. The following applies: NCI-H441, 96 h, read-out: NCI-H441 IC50 (nM), NCI-H441 cell proliferation, 4 days, CellTiter-Glo.
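Throughout, for IC50: cell proliferation inhibition after four days measured by CellTiter-Glo.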

GDP-bound NRAS wild-type protein, sequence (P01111 whole entry): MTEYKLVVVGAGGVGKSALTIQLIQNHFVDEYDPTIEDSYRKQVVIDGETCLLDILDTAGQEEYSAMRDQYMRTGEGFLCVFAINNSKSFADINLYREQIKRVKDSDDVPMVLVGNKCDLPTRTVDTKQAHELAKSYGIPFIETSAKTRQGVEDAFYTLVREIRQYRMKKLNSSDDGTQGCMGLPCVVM
GDP-bound HRAS wild-type protein, sequence (P01112 whole entry): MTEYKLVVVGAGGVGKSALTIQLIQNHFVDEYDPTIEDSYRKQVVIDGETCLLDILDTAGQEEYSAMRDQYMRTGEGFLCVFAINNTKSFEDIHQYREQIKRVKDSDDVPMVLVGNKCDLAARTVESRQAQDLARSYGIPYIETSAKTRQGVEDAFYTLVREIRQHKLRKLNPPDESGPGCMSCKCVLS
GDP-bound KRAS wild-type protein, sequence (P01116 whole entry): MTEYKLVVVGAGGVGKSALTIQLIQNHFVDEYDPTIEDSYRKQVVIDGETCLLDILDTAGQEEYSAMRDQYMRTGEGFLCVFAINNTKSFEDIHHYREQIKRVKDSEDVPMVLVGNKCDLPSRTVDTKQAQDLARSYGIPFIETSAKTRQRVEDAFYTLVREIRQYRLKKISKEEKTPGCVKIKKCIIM

Turning to `CCO[C@@H]1C[C@H]2C(=O)NC3(CCC3)C(=O)N(C)[C@@H](C3CCCC3)C(=O)N(C)[C@H](CC)CC(=O)N(C)[C@@H](CC)C(=O)N[C@@H]([C@@H](C)CC)C(=O)N(C)CC(=O)N(C)[C@H]3C/C=C\CCN(C3=O)[C@@H](Cc3ccc(C(F)(F)F)cc3)C(=O)N(C)CC(=O)N[C@@H](CCc3cc(F)c(C(F)(F)F)c(F)c3)C(=O)N2C1` [PP1625], the “HRAS/KRAS (KD ratio)” value in assay [1] was “B (a compound having 3 or more and less than 10 is denoted as B)”. The Kd (usually the equilibrium constant for the complex coming apart) in assay [2] is 0.29 nM. Further, in assay [3], the “NRAS/KRAS (KD ratio)” value was “B (a compound having 3 or more and less than 10 is denoted as B)”. The IC50 in assay [4] turned out to be 20.2 nM.
For the compound `CCO[C@@H]1C[C@H]2C(=O)NC3(CC(C)(C)C3)C(=O)N(C)[C@@H](C(CC)CC)C(=O)N(C)[C@H](CC)CC(=O)N(C)[C@@H](CC3CC3)C(=O)N[C@@H]([C@@H](C)CC)C(=O)N(C)CC(=O)N(C)[C@H]3C/C=C\CCN(C3=O)[C@@H](Cc3ccc(C(F)(F)F)cc3)C(=O)N(C)CC(=O)N[C@@H](CCc3cc(F)c(C(F)(F)F)c(F)c3)C(=O)N2C1` [PP1628], the “HRAS/KRAS (KD ratio)” value in assay [1] is “A (a compound having 10 or more and less than 20 is denoted as A)”. For the same compound, the dissociation constant (Kd) in assay [2] was 2.5 nM. Further, in assay [3], the “NRAS/KRAS (KD ratio)” value is “A (a compound having 10 or more and less than 20 is denoted as A)”. The IC50 in assay [4] is 150 nM.
Take `CCO[C@@H]1C[C@H]2C(=O)NC3(CC(C)(C)C3)C(=O)N(C)[C@@H](C3CCCC3)C(=O)N(CC)[C@H](C(=O)N(C)C)CC(=O)N(C)[C@@H](CC)C(=O)N[C@@H]([C@@H](C)CC)C(=O)N(C)CC(=O)N(C)[C@H]3C/C=C\CCN(C3=O)[C@@H](Cc3ccc(C(F)(F)F)cc3)C(=O)N(C)CC(=O)N[C@@H](CCc3cc(F)c(C(F)(F)F)c(F)c3)C(=O)N2C1` [PP1768]: the “HRAS/KRAS (KD ratio)” value in assay [1] was “A (a compound having 10 or more and less than 20 is denoted as A)”. For the same compound, the dissociation constant Kd in assay [2] was determined as 0.32 nM. Moreover, the “NRAS/KRAS (KD ratio)” value in assay [3] is “A (a compound having 10 or more and less than 20 is denoted as A)”. For the same compound, the IC50 in assay [4] was determined as 4.9 nM.
As to `CC[C@H](C)[C@@H]1NC(=O)[C@H](CC)N(C)C(=O)C[C@@H](C(=O)N(C)C)N(C)C(=O)[C@H](C2CCCC2)N(C)C(=O)C2(CC(C)(C)C2)NC(=O)[C@@H]2C[C@@H](C)CN2C(=O)[C@H](CCc2ccc(C(F)(F)F)c(OC)c2)NC(=O)CN(C)C(=O)[C@H](Cc2ccc(C)cc2)N2CC/C=C\C[C@@H](C2=O)N(C)C(=O)CN(C)C1=O` [PP1838], the “HRAS/KRAS (KD ratio)” value in assay [1] is “A (a compound having 10 or more and less than 20 is denoted as A)”. Besides, in assay [2], the Kd stood at 0.1 nM. In addition, the “NRAS/KRAS (KD ratio)” value in assay [3] is “A (a compound having 10 or more and less than 20 is denoted as A)”. Besides, the IC50 in assay [4] was 20 nM.
For `CCO[C@@H]1C[C@H]2C(=O)NC3(CC(C)(C)C3)C(=O)N(C)[C@@H](C3CCCC3)C(=O)N(C)[C@H](C(=O)N(C)CC)CC(=O)N(C)[C@@H](CC)C(=O)N[C@@H]([C@@H](C)CC)C(=O)N(C)CC(=O)N(C)[C@H]3C/C=C\CCN(C3=O)[C@@H](Cc3ccc(C)cc3)C(=O)N(C)CC(=O)N[C@@H](CCc3cc(F)c(C(F)(F)F)c(F)c3)C(=O)N2C1` [PP1886], the “HRAS/KRAS (KD ratio)” value in assay [1] is “B (a compound having 3 or more and less than 10 is denoted as B)”. The Kd in assay [2] stood at 0.12 nM. Also, in assay [3], the “NRAS/KRAS (KD ratio)” value is “A (a compound having 10 or more and less than 20 is denoted as A)”. In addition, in assay [4], the IC50 came out at 1.9 nM.
On to `CCO[C@@H]1C[C@H]2C(=O)N(C)C3(CCCC3)C(=O)N(C)[C@@H](C3CCCC3)C(=O)N(C)[C@H](C(=O)N(C)C)CC(=O)N(C)[C@@H](C3CC3)C(=O)N[C@@H]([C@@H](C)CC)C(=O)N(C)CC(=O)N(C)[C@H]3C/C=C\CCN(C3=O)[C@@H](Cc3ccc(C)cc3)C(=O)N(C)CC(=O)N[C@@H](CCc3cc(F)c(C(F)(F)F)c(F)c3)C(=O)N2C1` [PP1808], for which the “HRAS/KRAS (KD ratio)” value in assay [1] is “B (a compound having 3 or more and less than 10 is denoted as B)”. In assay [2], the dissociation constant Kd was determined as 0.084 nM. Further, the “NRAS/KRAS (KD ratio)” value in assay [3] was “A (a compound having 10 or more and less than 20 is denoted as A)”. In addition, in assay [4], the IC50 is 8.8 nM.
For `CC[C@H](C)[C@@H]1NC(=O)[C@H](CC(C)C)N(C)C(=O)C[C@@H](C(=O)N(C)C)N(C)C(=O)[C@H](C2CCCC2)N(C)C(=O)C2(CCC2)NC(=O)[C@@H]2C[C@@H](C)CN2C(=O)[C@H](CCc2ccc(C(F)(F)F)c(Cl)c2)NC(=O)CN(C)C(=O)[C@H](Cc2ccc(C)cc2)N2CC/C=C\C[C@@H](C2=O)N(C)C(=O)CN(C)C1=O` [PP1854], in assay [1], the “HRAS/KRAS (KD ratio)” value is “A (a compound having 10 or more and less than 20 is denoted as A)”. Further, the Kd in assay [2] stood at 0.096 nM. Further, the “NRAS/KRAS (KD ratio)” value in assay [3] was “A (a compound having 10 or more and less than 20 is denoted as A)”. For the same compound, the IC50 in assay [4] is 5.2 nM.
On to `CCC[C@H]1C(=O)N[C@@H]([C@@H](C)CC)C(=O)N(C)CC(=O)N(C)[C@H]2C/C=C\CCN(C2=O)[C@@H](Cc2ccc(C(F)(F)F)cc2)C(=O)N(C)CC(=O)N[C@@H](CCc2cc(F)c(C(F)(F)F)c(F)c2)C(=O)N2C[C@H](OCC)C[C@H]2C(=O)NC2(CCC2)C(=O)N(C)[C@@H](C2CCCC2)C(=O)N(CCC)[C@H](C(=O)N(C)C)CC(=O)N1C` [PP1769], for which the “HRAS/KRAS (KD ratio)” value in assay [1] is “A (a compound having 10 or more and less than 20 is denoted as A)”. Moreover, the dissociation constant (Kd) in assay [2] came out at 0.78 nM. Moreover, the “NRAS/KRAS (KD ratio)” value in assay [3] was “A (a compound having 10 or more and less than 20 is denoted as A)”. The IC50 in assay [4] was 12.9 nM.
For the compound `CCO[C@@H]1C[C@H]2C(=O)NC3(CC(C)(C)C3)C(=O)N(C)[C@@H](C3CCCC3)C(=O)N(C)[C@H](C(=O)N3CCCC3)CC(=O)N(C)[C@@H](CC)C(=O)N[C@@H]([C@@H](C)CC)C(=O)N(C)CC(=O)N(C)[C@H]3C/C=C\CCN(C3=O)[C@@H](Cc3ccc(C(F)(F)F)cc3)C(=O)N(C)CC(=O)N[C@@H](CCc3cc(F)c(C(F)(F)F)c(F)c3)C(=O)N2C1` [PP1944], the “HRAS/KRAS (KD ratio)” value in assay [1] is “A (a compound having 10 or more and less than 20 is denoted as A)”. For the same compound, the Kd in assay [2] was 0.19 nM. In addition, the “NRAS/KRAS (KD ratio)” value in assay [3] was “A (a compound having 10 or more and less than 20 is denoted as A)”. Moreover, in assay [4], the IC50 worked out at 14.8 nM.
As for `CCO[C@@H]1C[C@H]2C(=O)NC3(CC(C)(C)C3)C(=O)N(C)[C@@H](C3CCCC3)C(=O)N(C)[C@H](C(=O)N(C)C)CC(=O)N(C)[C@@H](CC(F)F)C(=O)N[C@@H]([C@@H](C)CC)C(=O)N(C)CC(=O)N(C)[C@H]3C/C=C\CCN(C3=O)[C@@H](Cc3ccc(C(F)(F)F)cc3)C(=O)N(C)CC(=O)N[C@@H](CCc3ccc(C(F)(F)F)c(Cl)c3)C(=O)N2C1` [PP1747], in assay [1], the “HRAS/KRAS (KD ratio)” value was “A (a compound having 10 or more and less than 20 is denoted as A)”. For the same compound, the equilibrium dissociation constant (Kd) in assay [2] was 0.058 nM. For the same compound, the “NRAS/KRAS (KD ratio)” value in assay [3] was “A (a compound having 10 or more and less than 20 is denoted as A)”. Also, in assay [4], the IC50 worked out at 2.3 nM.
As for `CCCOC[C@H]1C(=O)N[C@@H]([C@@H](C)CC)C(=O)N(C)CC(=O)N(C)[C@H]2C/C=C\CCN(C2=O)[C@@H](Cc2ccc(C(F)(F)F)cc2)C(=O)N(C)CC(=O)N[C@@H](CCc2ccc(C(F)(F)F)c(Cl)c2)C(=O)N2C[C@H](OCC)C[C@H]2C(=O)NC2(CC(C)(C)C2)C(=O)N(C)[C@@H](C2CCCC2)C(=O)N(C)[C@H](C(=O)N(C)C)CC(=O)N1C` [PP1754], in assay [1], the “HRAS/KRAS (KD ratio)” value is “A (a compound having 10 or more and less than 20 is denoted as A)”. In assay [2], the dissociation constant (Kd) amounted to 0.064 nM. In assay [3], the “NRAS/KRAS (KD ratio)” value is “A (a compound having 10 or more and less than 20 is denoted as A)”. Also, in assay [4], the IC50 stood at 3 nM.
As for `CCCO[C@H](C)[C@@H]1NC(=O)[C@H](CC(C)C)N(C)C(=O)C[C@@H](C(=O)N(C)C)N(C)C(=O)[C@H](C2CCCC2)N(C)C(=O)C2(CC(C)(C)C2)NC(=O)[C@@H]2C[C@@H](OCC)CN2C(=O)[C@H](CCc2cc(F)c(C(F)(F)F)c(F)c2)NC(=O)CN(C)C(=O)[C@H](Cc2ccc(C(F)(F)F)cc2)N2CC/C=C\C[C@@H](C2=O)N(C)C(=O)CN(C)C1=O` [PP1921], in assay [1], the “HRAS/KRAS (KD ratio)” value was “A (a compound having 10 or more and less than 20 is denoted as A)”. For the same compound, the Kd in assay [2] came to 0.055 nM. In assay [3], the “NRAS/KRAS (KD ratio)” value was “A (a compound having 10 or more and less than 20 is denoted as A)”. Further, the IC50 in assay [4] was 7.8 nM.
Regarding `CCCOC[C@H]1C(=O)N[C@@H]([C@@H](C)CC)C(=O)N(C)CC(=O)N(C)[C@H]2C/C=C\CCN(C2=O)[C@@H](Cc2ccc(C(F)(F)F)cc2)C(=O)N(C)CC(=O)N[C@@H](CCc2ccc(C(F)(F)F)c(OC)c2)C(=O)N2C[C@H](OCC)C[C@H]2C(=O)NC2(CCC2)C(=O)N(C)[C@@H](C2CCCC2)C(=O)N(C)[C@H](C(=O)N(C)CC)CC(=O)N1C` [PP2016], the “HRAS/KRAS (KD ratio)” value in assay [1] was “A (a compound having 10 or more and less than 20 is denoted as A)”. Moreover, the Kd in assay [2] turned out to be 0.11 nM. For the same compound, the “NRAS/KRAS (KD ratio)” value in assay [3] was “A (a compound having 10 or more and less than 20 is denoted as A)”. Also, the IC50 in assay [4] is 8.2 nM.
As for `CCCOC[C@H]1C(=O)N[C@@H]([C@@H](C)CC)C(=O)N(C)CC(=O)N(C)[C@H]2C/C=C\CCN(C2=O)[C@@H](Cc2ccc(C(F)(F)F)cc2)C(=O)N(C)CC(=O)N[C@@H](CCc2cc(F)c(C(F)(F)F)c(F)c2)C(=O)N2C[C@H](OCC)C[C@H]2C(=O)NC2(CC(C)(C)C2)C(=O)N(C)[C@@H](C2CCCC2)C(=O)N(C)[C@H](C(=O)N(C)CCC)CC(=O)N1C` [PP1673], in assay [1], the “HRAS/KRAS (KD ratio)” value is “A (a compound having 10 or more and less than 20 is denoted as A)”. In addition, the dissociation constant (Kd) in assay [2] was determined as 0.16 nM. Moreover, in assay [3], the “NRAS/KRAS (KD ratio)” value was “A (a compound having 10 or more and less than 20 is denoted as A)”. Moreover, the IC50 in assay [4] amounted to 6 nM.
